The source of these data is patent US8071099B2, “Anti-FLT3 antibodies” (ImClone, LLC, priority 2008, dated 2011).

One experiment relates to SEM-K2 cells. Description: Combination therapy with EB10 and MTX in SEM-K2 Leukemia Model. The format is in vivo, NOD/SCID mice. Conditions: EB10 10 mg/kg i.p. 2×/week; MTX 100 mg/kg Q7D; combination of both. As to the method: One day prior to the start of treatment, i.v. inject 65, 7 weeks old, male NOD/SCID mice with 5×10^5 SEM-K2 cells suspended in PBS in a total volume of 200 μl. Drop from the study mice receiving less than 90% of cells intravenously.
Prepare MTX (Sigma Chemical, Cat # M9929) in USP Saline at a concentration of 10 mg/ml and dose Q7D for three cycles. […] Dose all mice at 10 ml/kg i.p. In the combination group, dose MTX at least one hour before EB 10 treatment starting on day 1. Record mouse survival daily. Follow the mice for survival, and sacrifice any mouse displaying signs of morbidity/mortality; mark as dead on the day of sacrifice. End the study on day 168 and sacrifice any mice surviving to that point. Compare survival in the treatment groups by Log Rank Test between treatment groups.

A further experiment has as its system EOL-1 leukemia cells. The experiment can be described thus: EOL-1 Xenograft Human AML Leukemia Model. The settings on record: 10 μg. Format: in vivo, NOD-SCID mice. (In general: Xenograft models place foreign cells or tissue in a host animal.)
Experiment [1] deals with FLT3-negative JM1 or BaF3-control cell lines. Description: Flow cytometric analysis, FLT3-negative cell lines. Format: binding. On the technique in general: Flow cytometry measures light scatter and fluorescence of single cells or particles in a stream.
The next experiment relates to Human Leukemia Cells. The experiment can be described thus: Bone Marrow Engraftment of Human Leukemia Cells. The format is in vivo, mice. The settings on record: 500 μg/dose, versus control-IgG treated group. As to the method:
Bone Marrow Engraftment of Human Leukemia Cells: Harvest bone marrow from the femurs of EB10-treated mice (500 μg/dose) and the control-IgG treated group at day 20. Analyze cells for human CD45 by flow cytometry at 6 and 14 weeks post leukemia cell injection for the degree of tumor cell infiltration of bone marrow. Compare the degree of tumor cell infiltration of bone marrow using immunohistochemical staining with a fluorescence-labeled anti-human CD45 antibody.

The next experiment concerns BaF3-ITD cells. The experiment can be described thus: Cell proliferation assay ([3H]-thymidine), FL-independent, BaF3-ITD. Format: cell-based. As to the method:
Harvest EOL-1 cells and wash three times using serum-free RPMI 1640 medium. Culture cells in serum-free RPMI 1640 medium for 12 hours. For BaF3-ITD cells, perform the proliferation assay in RPMI 1640 medium supplemented with 10% FCS in the absence of exogenous FL. Reconstitute cells in serum-free AIM-V medium, plate in triplicates in a flat-bottomed 96-well plate (1×104/100 μl/well) and incubate with varying concentrations of antibodies (from 0 to 100 nM) and 30 ng/ml of FL at 37° C. for 68 hours. As a background control, incubate cells with medium alone in the absence of exogenous FL. Pulse cells with 0.25 μCi/well of [^3H]-thymidine for 4 hours. Harvest cells and measure cpm in a PerkinElmer Wallace-1205 Betaplate Liquid Scintillation Counter (Wellesley, Mass.). Calculate the percent inhibition of FL-induced proliferation for EOL-1 cells; deduce the cpm of background proliferation (i.e., cell samples not stimulated with FL) from the cpm of all experimental samples. Calculate percent inhibition using the following formula: [(cpm of untreated sample—cpm of antibody-treated sample)/cpm of untreated sample]×100%.

Take `CN(Cc1cnc2nc(N)nc(N)c2n1)c1ccc(C(=O)N[C@@H](CCC(=O)O)C(=O)O)cc1` [MTX, methotrexate, reference compound]: in the experiment on SEM-K2 cells, the “mouse survival” value is “also prolonged survival”.
In the case of “EB10: recombinant human monoclonal antibody, full length IgG1κ targeting human FLT3; heavy chain SEQ ID NO:25, light chain SEQ ID NO:28”, the “effect on survival” value in the experiment on EOL-1 leukemia cells is “No effect”. Further, the “binding by flow cytometric analysis” value in experiment [1] (BaF3-control cell line) and in experiment [1] (FLT3-negative JM1 cell line) was “No binding” each time. Also, the “number of tumor cells in bone marrow (human CD45)” value with Human Leukemia Cells is “decreased significantly”. In the experiment on SEM-K2 cells, the “mouse survival” value is listed as “significantly prolonged mouse survival”. The “% Inhibition of FL-independent proliferation (Mean ± Standard deviation)” value in the experiment on BaF3-ITD cells (6 nM) is recorded as 9.6 ± 3.1%; in the experiment on BaF3-ITD cells (13 nM), 13.0 ± 4.0%; with BaF3-ITD cells (25 nM), 23.3 ± 0.6%; with BaF3-ITD cells (50 nM), 28.6 ± 3.1%; in the experiment with BaF3-ITD cells (100 nM) it was 29.2 ± 3.0%.
